Data set [1] is described as follows: Plasma concentration after oral administration of prodrug Compound II-6. It counts as in vivo. Conditions: after oral administration of Compound II-6 to rat under non-fasting conditions, all plasma samples. From the text:
FIG. 1 is a result of measuring the plasma concentration of compound III-2, after oral administration of prodrug Compound II-6, the parent compound of which is Compound III-2, to rat under non-fasting conditions.
FIG. 2 is a result of measuring the plasma concentration of compound II-6, after oral administration of prodrug Compound II-6, the parent compound of which is Compound III-2, to rat under non-fasting conditions.
FIGS. 1 and 2 show a result of measuring the plasma concentration of Compound III-2 and Compound II-6 after oral administration of prodrug Compound II-6, the parent compound of which is Compound III-2, to rat under non-fasting conditions.
Therefore, prodrug Compound II-6, the parent compound of which is Compound III-2 is found to have changed promptly to Compound III-2 in vivo after administration (see FIG. 2).

Another data set in a line: in vivo. The following applies: oral vs intravenous administration, mice or SD rats, read-out: bioavailability (BA). On the procedure: Materials and Methods for Experiments to Evaluate Oral Absorption
(1) Experimental animals: mice or SD rats were used.
(2) Rearing condition: mice or SD rats were allowed free access to solid feed and sterilized tap water.
(3) Setting of dosage and grouping: Oral administration and intravenous administration were performed with the predetermined dosage. Grouping was set as below. (Dosage was changed per compound)
Oral administration 1 to 30 mg/kg (n=2 to 3)
Intravenous administration 0.5 to 10 mg/kg (n=2 to 3)
(4) Preparation of administration solutions: Oral administration was performed as solution or suspension. Intravenous administration was performed after solubilization.
(5) Routes of administration: Oral administration was performed mandatory into the stomach by oral sonde. […]
(6) Evaluation items: Blood was collected serially and concentration of a compound of the present invention in plasma was measured by LC/MS/MS.
(7) Statistical analysis: About transition of concentration of a compound of the present invention in plasma, the area under the plasma concentration versus time curve (AUC) was calculated by non-linear least-squares method program, WinNonlin (a registered trademark), and bioavailability (BA) of a compound of the present invention was calculated from AUCs of the oral administration group and the intravenous administration group. […]

The next data set has as its system influenza virus. Description: CPE inhibitory effect confirming assay. It counts as cell-based. Conditions: unidentified influenza virus, 72 h, read-out: CPE_EC50.
Data set [2] concerns the target cap-dependent endonuclease (RNP fraction, PB1-PB2-PA complex) (Influenza A virus, UniProt P15659). Nature of the data set: Measurement of cap-dependant endonuclease (CEN) inhibitory activity. Type of data set: biochemical. Conditions: RNP from A/WSN/33 virus, room temperature 60 minutes; read-out: CEN_IC50.

In the case of `COC(=O)OCOc1c2n(ccc1=O)N([C@@H]1c3ccccc3SCc3c1ccc(F)c3F)[C@@H]1COCCN1C2=O` [II-6], the “concentration of Compound II-6 in plasma” value in data set [1] is “a determination limit or less”. Besides, the bioavailability in the data set “in vivo” worked out at 14.9%.

For `O=C1c2c(O)c(=O)ccn2N(C2c3ccccc3CCc3ccccc32)[C@@H]2COCCN12` [III-56], in the data set with influenza virus, the EC50 stood at 4.99 nM. Moreover, the IC50 in data set [2] was 6.64 nM.

In the case of `O=C1c2c(O)c(=O)ccn2N([C@H]2c3ccc(F)cc3CSc3ccccc32)[C@@H]2C[C@@H](C(F)(F)F)CCN12` [III-57], the EC50 with influenza virus is 3.47 nM. Moreover, in data set [2], the IC50 was 4.27 nM.

As to `C[C@@H]1CC[C@@H]2N(C1)C(=O)c1c(O)c(=O)ccn1N2[C@H]1c2ccc(F)cc2CSc2ccccc21` [III-58], the EC50 in the data set on influenza virus turned out to be 3.13 nM. Moreover, the IC50 in data set [2] came out at 2.65 nM.

As for `O=C1c2c(O)c(=O)ccn2N([C@@H]2c3ccccc3SCc3c2ccc(F)c3F)[C@@H]2CCCCN12` [III-59], the EC50 with influenza virus is 3.11 nM. For the same compound, the IC50 in data set [2] was determined as 0.57 nM.

The values are drawn from patent US10633397B2, “Substituted polycyclic pyridone derivatives and prodrugs thereof” (priority 2015, dated 2020).
